Legend:
[1] = test system: johnsongrass; assay: Test C preemergence; assay type: in vivo, Sorghum halepense; settings: for Johnsongrass plant response rating / Plant response rating, Johnsongrass: preemergence; for Plant response rating, Johnsongrass: scale 0 to 100, 0 = no effect, 100 = complete control; for Plant response rating (scale of 0 to 100), Johnsongrass: Preemergence
Source text: (§1) Seeds of plant species selected from blackgrass (Alopecurus myosuroides), ryegrass, Italian (Italian ryegrass, Lolium multiflorum), wheat (winter wheat, Triticum aestivum), galium (catchweed bedstraw, Galium aparine), corn (Zea mays), crabgrass, large (large crabgrass, Digitaria sanguinalis), foxtail, giant (giant foxtail, Setaria faberii), johnsongrass (Sorghum halepense), lambsquarters (Chenopodium album), morningglory (Ipomoea coccinea), nutsedge, yellow (yellow nutsedge, Cyperus esculentus), pigweed (redroot pigweed, Amaranthus retroflexus), ragweed (common ragweed, Ambrosia elation), soybean (Glycine max), barnyardgrass (Echinochloa crus-galli), oilseed rape (Brassica napus), waterhemp (common waterhemp, Amaranthus rudis), oat, wild (wild oat, Avena fatua), kochia (Kochia scoparia), Surinam grass (Brachiaria decumbens), foxtail, green (green foxtail, Setaria viridis), goosegrass (Eleusine indica), bromegrass, downy (downy bromegrass, Bromus tectorum), nightshade (eastern black nightshade, Solanum ptycanthum), cocklebur (common cocklebur, Xanthium strumarium), cupgrass, woolly (woolly cupgrass, Eriochloa villosa), bermudagrass (Cynodon dactylon), sunflower, (common oilseed sunflower, Helianthus annuus), Russian thistle (Salsola kali), and velvetleaf (Abutilon theophrasti) were planted into a blend of loam soil and sand and treated preemergence with test chemicals formulated in a non-phytotoxic solvent mixture which included a surfactant.
(§2) At the same time, plants selected from these crop and weed species and also chickweed (common chickweed, Stellaria media), canarygrass (littleseed canarygrass, Phalaris minor), and deadnettle (henbit deadnettle, Lamium amplexicaule), were planted in pots containing Redi-Earth® planting medium (Scotts Company, 14111 Scottslawn Road, Marysville, Ohio 43041) comprising spaghnum peat moss, vermiculite, wetting agent and starter nutrients and treated with postemergence applications of test chemicals formulated in the same manner. Plants ranged in height from 2 to 18 cm (1- to 4-leaf stage) for postemergence treatments. Treated plants and controls were maintained in a greenhouse for 13 to 15 days, after which time all species were compared to controls and visually evaluated. Plant response ratings, summarized in Table C, are based on a scale of 0 to 100 where 0 is no effect and 100 is complete control. A dash (-) response means no test result.

[2] = test system: blackgrass; assay: Test C preemergence; assay type: in vivo, Alopecurus myosuroides; settings: for Blackgrass plant response rating / Plant response rating, Blackgrass: preemergence; for Plant response rating, Blackgrass: scale 0 to 100, 0 = no effect, 100 = complete control; for Plant response rating (scale of 0 to 100), Blackgrass: Preemergence
Source text: as §1, §2

[3] = test system: crabgrass, large; assay: Test C preemergence; assay type: in vivo, Digitaria sanguinalis; settings: for Crabgrass, Large plant response rating / Plant response rating, Crabgrass, Large: preemergence; for Plant response rating, Crabgrass, Large: scale 0 to 100, 0 = no effect, 100 = complete control; for Plant response rating (scale of 0 to 100), Crabgrass, Large: Preemergence
Source text: as §1, §2

[4] = test system: morningglory; assay: Test A postemergence; assay type: in vivo, Ipomoea spp.
How it was run: (§3)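 Ratings express plant response from 0 (no effect) to 100 (complete control), judged visually against untreated controls after approximately 10 days in the greenhouse. Preemergence applications were made as directed soil sprays onto seeded loam–sand mix, and postemergence applications onto 2–10 cm plants at one- to two-leaf stage.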

[5] = test system: foxtail, giant; assay: Test A postemergence; assay type: in vivo, Setaria faberii
How it was run: as §3

[6] = test system: oilseed rape; assay: Test C preemergence; assay type: in vivo, Brassica napus; settings: preemergence
Source text: as §1, §2

[7] = test system: morningglory; assay: Test C preemergence; assay type: in vivo, Ipomoea coccinea; settings: for Morningglory plant response rating / Plant response rating, Morningglory: preemergence; for Plant response rating, Morningglory: scale 0 to 100, 0 = no effect, 100 = complete control; for Plant response rating (scale of 0 to 100), Morningglory: Preemergence
Source text: as §1, §2

[8] = test system: ducksalad; assay: Test B flood; assay type: in vivo, Heteranthera limosa; settings: 250 g ai/ha, visual rating on 0 to 100 scale (0 no effect, 100 complete control), 13 to 15 days
How it was run: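 Plants were grown to the 2-leaf stage and pots flooded to 3 cm above soil. Compounds were applied directly into the paddy water, with depth kept for the test. After 13–15 days in greenhouse, response was rated visually against controls on a 0 (no effect) to 100 (complete control) scale.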

[9] = test system: velvetleaf; assay: Test C postemergence; assay type: in vivo, Abutilon theophrasti; settings: postemergence; for Velvetleaf plant response rating: 62 g ai/ha, scale 0 to 100
Source text: as §1, §2

[10] = test system: crabgrass, large; assay: Test C postemergence; assay type: in vivo, Digitaria sanguinalis; settings: for Crabgrass, Large plant response rating: scale 0 to 100
Source text: as §1, §2

[11] = test system: soybean; assay: Test C postemergence; assay type: in vivo, Glycine max; settings: postemergence; for Soybean plant response rating: 62 g ai/ha, scale 0 to 100
Source text: as §1, §2

[12] = 31 g ai/ha, visual rating, scale 0 to 100 (0 no effect, 100 complete control), 13 to 15 days
[13] = 62 g ai/ha, scale 0 to 100 (0 no effect, 100 complete control), 13 to 15 days
[14] = 250 g ai/ha, scale 0 to 100, 0 is no effect, 100 is complete control
[15] = Postemergence, 500 g ai/ha, 0 to 100 scale (0 no effect, 100 complete control)
[16] = postemergence, 125 g ai/ha, about 10 days, visual rating on 0 to 100 scale (0 no effect, 100 complete control)
[17] = 31 g ai/ha, scale 0 to 100 (0 no effect, 100 complete control), 13 to 15 days
[18] = 125 g ai/ha, scale 0 to 100, 0 is no effect, 100 is complete control
[19] = 250 g ai/ha, scale 0 to 100 (0 no effect, 100 complete control)
[20] = 125 g ai/ha, scale 0 to 100, 0 no effect, 100 complete control
[21] = Postemergence, 500 g ai/ha, visual rating after approx. 10 days, 0 to 100 scale (0 no effect, 100 complete control)
[22] = postemergence, 250 g ai/ha, scale 0 to 100 (0 no effect, 100 complete control)
[23] = postemergence, 125 g ai/ha, scale 0 to 100, 0 no effect, 100 complete control
[24] = Postemergence, 1000 g ai/ha, visual rating after approx. 10 days, 0 to 100 scale (0 no effect, 100 complete control)
[25] = postemergence, 62 g ai/ha, scale 0 to 100, 0 no effect, 100 complete control

O=C(NC1CC1)c1cc(CCF)n(Cc2ccnc(C(F)(F)F)c2)n1 [Compound 176]
Johnsongrass plant response rating [1, 12]: 0 | Johnsongrass plant response rating [1, 13]: 20 | Plant response rating, Johnsongrass ([1]; 125 g ai/ha, 13 to 15 days): 65 | Johnsongrass plant response rating [1, 14]: 85 | Blackgrass plant response rating [2, 12]: 5 | Blackgrass plant response rating [2, 13]: 5 | Plant response rating, Blackgrass ([2]; 125 g ai/ha, 13 to 15 days): 90 | Blackgrass plant response rating [2, 14]: 90 | Crabgrass, Large plant response rating [3, 12]: 98 | Crabgrass, Large plant response rating [3, 13]: 95 | Plant response rating, Crabgrass, Large ([3]; 125 g ai/ha, 13 to 15 days): 100 | Crabgrass, Large plant response rating [3, 14]: 100 | Morningglory plant response rating [4, 15]: 90 | Morningglory plant response rating [4, 16]: 90 | Foxtail, Giant plant response rating [5, 15]: 90 | Foxtail, Giant plant response rating [5, 16]: 80 | Oilseed Rape plant response rating [6, 12]: 90 | Oilseed Rape plant response rating [6, 13]: 90 | Plant response rating, Oilseed Rape ([6]; 125 g ai/ha, 13 to 15 days, scale 0 to 100, 0 = no effect, 100 = complete control): 95 | Oilseed Rape plant response rating [6, 14]: 100 | Morningglory plant response rating [7, 12]: 65 | Morningglory plant response rating [7, 13]: 98 | Plant response rating, Morningglory ([7]; 125 g ai/ha, 13 to 15 days): 98 | Morningglory plant response rating [7, 14]: 100 | Plant response rating, Ducksalad [8]: 100

CCONC(=O)c1cc(CC)n(Cc2cccc(OC(F)(F)F)c2)n1 [Compound 72]
Plant response rating (scale of 0 to 100), Johnsongrass ([1]; 250 g ai/ha): 75 | Johnsongrass plant response rating [1, 17]: 40 | Plant response rating, Johnsongrass ([1]; 62 g ai/ha, 13 to 15 days): 55 | Johnsongrass plant response rating [1, 18]: 65 | Plant response rating (scale of 0 to 100), Blackgrass ([2]; 250 g ai/ha): 85 | Blackgrass plant response rating [2, 17]: 45 | Plant response rating, Blackgrass ([2]; 62 g ai/ha, 13 to 15 days): 80 | Blackgrass plant response rating [2, 18]: 85 | Velvetleaf plant response rating [9]: 5 | Plant response rating, Velvetleaf [9, 19]: 55 | Plant response rating, Velvetleaf [9, 20]: 35 | Plant response rating (scale of 0 to 100), Crabgrass, Large ([3]; 250 g ai/ha): 98 | Crabgrass, Large plant response rating [3, 17]: 55 | Plant response rating, Crabgrass, Large ([3]; 62 g ai/ha, 13 to 15 days): 95 | Crabgrass, Large plant response rating [3, 18]: 98 | Morningglory plant response rating [4, 21]: 90 | Morningglory plant response rating [4, 16]: 80 | Foxtail, Giant plant response rating [5, 21]: 90 | Foxtail, Giant plant response rating [5, 16]: 80 | Crabgrass, Large plant response rating ([10]; Postemergence, 31 g ai/ha): 5 | Crabgrass, Large plant response rating ([10]; postemergence, 62 g ai/ha): 5 | Plant response rating, Crabgrass, Large [10, 22]: 25 | Plant response rating, Crabgrass, Large [10, 23]: 5 | Soybean plant response rating [11]: 20 | Plant response rating, Soybean [11, 19]: 40 | Plant response rating, Soybean [11, 20]: 35 | Plant response rating (scale of 0 to 100), Morningglory ([7]; 250 g ai/ha): 85 | Morningglory plant response rating [7, 17]: 15 | Plant response rating, Morningglory ([7]; 62 g ai/ha, 13 to 15 days): 65 | Morningglory plant response rating [7, 18]: 85

CCCNC(=O)c1cc(CC)n(Cc2cccc(OC(F)(F)F)c2)n1 [Compound 27]
Velvetleaf plant response rating [9]: 15 | Plant response rating, Velvetleaf [9, 19]: 45 | Plant response rating, Velvetleaf [9, 20]: 20 | Morningglory plant response rating [4, 24]: 100 | Foxtail, Giant plant response rating [5, 24]: 70 | Crabgrass, Large plant response rating ([10]; Postemergence, 31 g ai/ha): 0 | Plant response rating, Crabgrass, Large [10, 22]: 45 | Plant response rating, Crabgrass, Large [10, 25]: 5 | Plant response rating, Crabgrass, Large [10, 23]: 10 | Soybean plant response rating [11]: 65 | Plant response rating, Soybean [11, 19]: 75 | Plant response rating, Soybean [11, 20]: 70

CCc1cc(C(=O)NCC(F)(F)F)nn1Cc1cccc(OC(F)(F)F)c1 [Compound 20]
Velvetleaf plant response rating [9]: 45 | Plant response rating, Velvetleaf [9, 19]: 60 | Plant response rating, Velvetleaf [9, 20]: 45 | Morningglory plant response rating [4, 24]: 100 | Foxtail, Giant plant response rating [5, 24]: 70 | Crabgrass, Large plant response rating ([10]; Postemergence, 31 g ai/ha): 10 | Plant response rating, Crabgrass, Large [10, 22]: 45 | Plant response rating, Crabgrass, Large [10, 25]: 20 | Plant response rating, Crabgrass, Large [10, 23]: 35 | Soybean plant response rating [11]: 45 | Plant response rating, Soybean [11, 19]: 75 | Plant response rating, Soybean [11, 20]: 60

CCc1cc(C(=O)NOC(C)C)nn1Cc1cccc(OC(F)(F)F)c1 [Compound 70]
Plant response rating (scale of 0 to 100), Johnsongrass ([1]; 250 g ai/ha): 95 | Johnsongrass plant response rating [1, 17]: 20 | Plant response rating, Johnsongrass ([1]; 62 g ai/ha, 13 to 15 days): 65 | Johnsongrass plant response rating [1, 18]: 80 | Plant response rating (scale of 0 to 100), Blackgrass ([2]; 250 g ai/ha): 85 | Blackgrass plant response rating [2, 17]: 65 | Plant response rating, Blackgrass ([2]; 62 g ai/ha, 13 to 15 days): 65 | Blackgrass plant response rating [2, 18]: 65 | Velvetleaf plant response rating [9]: 20 | Plant response rating, Velvetleaf [9, 19]: 55 | Plant response rating, Velvetleaf [9, 20]: 30 | Plant response rating (scale of 0 to 100), Crabgrass, Large ([3]; 250 g ai/ha): 100 | Crabgrass, Large plant response rating [3, 17]: 95 | Plant response rating, Crabgrass, Large ([3]; 62 g ai/ha, 13 to 15 days): 98 | Crabgrass, Large plant response rating [3, 18]: 98 | Morningglory plant response rating [4, 21]: 100 | Morningglory plant response rating [4, 16]: 100 | Foxtail, Giant plant response rating [5, 21]: 90 | Foxtail, Giant plant response rating [5, 16]: 90 | Crabgrass, Large plant response rating ([10]; Postemergence, 31 g ai/ha): 5 | Plant response rating, Crabgrass, Large [10, 22]: 45 | Plant response rating, Crabgrass, Large [10, 25]: 10 | Plant response rating, Crabgrass, Large [10, 23]: 40 | Soybean plant response rating [11]: 55 | Plant response rating, Soybean [11, 19]: 65 | Plant response rating, Soybean [11, 20]: 55 | Plant response rating (scale of 0 to 100), Morningglory ([7]; 250 g ai/ha): 95 | Morningglory plant response rating [7, 17]: 0 | Plant response rating, Morningglory ([7]; 62 g ai/ha, 13 to 15 days): 25 | Morningglory plant response rating [7, 18]: 75
